# Test results: the supplement of paper PMC10307832
# Assays:
# Assay in all cases: relative viability (nuclei count vs DMSO), 5 days (fraction); higher = more cells survive
# [1] = compound: O=C(/C=C/c1cccnc1)NCCCCC1CCN(C(=O)c2ccccc2)CC1 [Daporinad] + CC(=O)c1c(C)c2cnc(Nc3ccc(N4CCNCC4)cn3)nc2n(C2CCCC2)c1=O [Palbociclib] (partner 0.5 µM)
# Summary of the method: (§1)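 Relative viability was taken as the ratio of nuclei in treated wells to nuclei in vehicle wells. Lung cancer cell lines in 1536-well plates received compounds by pin tool one day after seeding, either one drug alone or a fixed anchor-drug dose plus five library-drug doses (not always all listed) in √10 steps. Nuclei were counted on 4× images after 5 days of treatment, and values are medians of duplicate plates.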
# [2] = compound: O=C(/C=C/c1cccnc1)NCCCCC1CCN(C(=O)c2ccccc2)CC1 [Daporinad] + N=C(N)NC(=N)NCCc1ccccc1 [Phenformin] (partner 250 µM)
# Summary of the method: as §1
# [3] = compound: COc1cc(Nc2ncc(F)c(Nc3ccc4c(n3)NC(=O)C(C)(C)O4)n2)cc(OC)c1OC [R406] + CS(=O)(=O)CCNCc1ccc(-c2ccc3ncnc(Nc4ccc(OCc5cccc(F)c5)c(Cl)c4)c3c2)o1 [Lapatinib] (partner 2 µM)
# Summary of the method: as §1
# [4] = compound: O=C(/C=C/c1cccnc1)NCCCCC1CCN(C(=O)c2ccccc2)CC1 [Daporinad] + CCNC(=O)c1noc(-c2cc(C(C)C)c(O)cc2O)c1-c1ccc(CN2CCOCC2)cc1 [Luminespib] (partner 0.01 µM)
# Summary of the method: as §1
Cell Line,relative viability ([1]; first compound 0.0005 µM),relative viability ([1]; first compound 0.001581 µM),relative viability ([1]; first compound 0.005 µM),relative viability ([1]; first compound 0.01581 µM),relative viability ([2]; first compound 0.0005 µM),relative viability ([2]; first compound 0.001581 µM),relative viability ([2]; first compound 0.005 µM),relative viability ([2]; first compound 0.01581 µM),relative viability ([3]; first compound 0.08 µM),relative viability ([3]; first compound 0.253 µM),relative viability ([3]; first compound 0.8 µM),relative viability ([3]; first compound 2.53 µM),relative viability ([3]; first compound 8 µM),relative viability ([4]; first compound 0.0005 µM),relative viability ([4]; first compound 0.001581 µM),relative viability ([4]; first compound 0.005 µM),relative viability ([4]; first compound 0.01581 µM)
HOP-62,0.399,0.437,0.479,0.423,0.493,0.746,0.765,0.526,0.918,0.949,1.08,1.06,1.12,0.898,0.963,1.03,0.688
IA-LM,,,,,,,,,0.99,1.26,0.797,1.01,0.777,,,,
LC-2-ad,0.463,0.511,0.491,0.486,0.568,0.707,0.605,0.677,0.986,0.847,1.03,0.112,0.0913,0.99,1.11,1.19,0.795
LCLC-97TM1,0.194,0.191,0.24,0.235,0.414,0.454,0.485,0.458,0.647,0.855,1.06,0.717,1.13,0.714,0.86,0.768,0.774
LCLC-103H,0.526,0.556,0.503,0.518,0.351,0.341,0.358,0.327,,,,,,0.988,0.937,1.03,1.06
LK-2,0.637,0.765,0.279,0.214,0.651,0.305,0.314,0.159,0.856,1.03,0.843,0.472,0.321,0.181,0.213,0.176,0.147
LOU-NH91,0.442,0.519,0.548,0.509,0.645,0.727,0.798,1.02,0.785,0.792,0.734,0.564,0.537,0.331,0.364,0.291,0.382
LU99A,0.381,0.414,0.391,0.391,0.833,0.981,0.946,0.93,0.946,0.849,1.08,,0.482,0.229,0.227,0.286,0.223
LXF-289,0.59,0.633,0.6,0.602,0.467,0.555,0.559,0.579,0.868,1.01,0.9,0.921,0.605,0.668,0.75,0.766,0.657
NCI-H23,0.578,0.467,0.463,0.275,0.726,0.773,0.829,0.399,1.12,1.54,1.28,0.589,0.593,0.197,0.231,0.203,0.215
